Counter-ions that a name gives are not always drawn.
Experiments:
[1] = Rat PK, intravenous and oral; format: in vivo, Sprague-Dawley rats; conditions: for AUC: Sprague-Dawley, plasma, rat
Protocol: Intravenous rat pharmacokinetics of exemplar compounds were determined in jugular vein cannulated Sprague-Dawley rats (n=3) (Harlan Laboratories, Indianapolis, Ind.) at a dose of 10 mg/kg. Compounds were dissolved and administered intravenously in 0.9% saline, pH 6.5 at a dose volume of 2 mL/kg. […] Oral pharmacokinetic studies were conducted with exemplar compounds at 10 mg/kg equivalents of carboxylic acids. Doses were dissolved and administered orally in 25:75 PEG400: water for injection, pH 4.5 at a dose volume of 10 mL/kg. […] Plasma samples were stored at −80° C. prior to bioanalysis.
Plasma samples were thawed on ice prior to processing. Samples (30 μL) were diluted and proteins precipitated with 180 μL of acetonitrile containing 0.1% formic acid and 250 ng/mL of carbutamide (N1-(butylcarbanoyl)-sulfanilamide, Sigma-Aldrich Catalog # S385433) as an internal standard. Samples were vortexed for 30 seconds, centrifuged at 3400 g for 10 minutes and the supernatant transferred to injection vials.
LC/MS/MS analysis was completed on an AB Sciex QTrap 6500 mass spectrometer in positive ionization mode, coupled to a Schimadzu Nexera LC system. A Waters Atlantis T3 (3 μm, 3.0×50 mm) column was used for chromatographic separation. Injection volume was […] The mobile phase consisted 0.1% formic acid in water (A) and 0.1% formic acid in acetonitrile (B), with a gradient of 2-98% B:A over two minutes.
Plasma concentration vs. time profiles following intravenous (IV) administration and oral (PO) administration of exemplar compounds were analyzed by non-compartment analysis using WinNonLin 6.4.

[2] = Stability/conversion of esters in rat intestinal S9; format: in vitro ADME; conditions: intestinal S9, pH 7.4, read-out: T1/2 Rat Intestinal S9
In short: (§1)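 Esters at 10 μM incubated at 37 °C with 0.8 mg/mL S9 (human intestinal without PMSF, rat liver or rat intestinal) or no enzyme, in 100 mM HEPES pH 7.4; sampled 0–60 min. LC-MS/MS tracked ester and hydrolysed active; first-order T1/2 from ester disappearance.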

[3] = Stability/conversion of esters in human liver S9; format: in vitro ADME; conditions: liver S9, pH 7.4, read-out: T1/2 Human Liver S9
In short: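 Ester test compounds (10 μM) were incubated at 37° C with human liver S9 at 0.8 mg/mL in 100 mM HEPES buffer, pH 7.4. Aliquots taken from 0 to 60 min were quenched in acetonitrile containing carbutamide internal standard, centrifuged, and analyzed by LC-MS/MS MRM; first-order half-lives came from loss of the parent ester.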

[4] = Stability/conversion of esters in rat liver S9; format: in vitro ADME; conditions: liver S9, pH 7.4, read-out: T1/2 Rat Liver S9
In short: as §1

[5] = Stability in pH 7.4 buffer (no enzyme); format: physicochemical; conditions: HEPES buffer without enzyme, read-out: T1/2 pH 7.4 Buffer
In short: as §1

[6] = Stability/conversion of esters in human intestinal S9; format: in vitro ADME; conditions: intestinal S9 (without PMSF), pH 7.4, read-out: T1/2 Human Intestinal S9
In short: as §1

[7] = biological target: OXA-48 (Class D beta-lactamase) (Klebsiella pneumoniae, UniProt Q6XEC0); assay: Inhibition of beta-lactamase enzymes (nitrocefin hydrolysis), OXA-48; format: biochemical; conditions: read-out: Class D OXA-48 60 min IC50, nitrocefin 100 μM
OXA-48 (Class D beta-lactamase), sequence (Q6XEC0 whole entry, looked up, species assumed): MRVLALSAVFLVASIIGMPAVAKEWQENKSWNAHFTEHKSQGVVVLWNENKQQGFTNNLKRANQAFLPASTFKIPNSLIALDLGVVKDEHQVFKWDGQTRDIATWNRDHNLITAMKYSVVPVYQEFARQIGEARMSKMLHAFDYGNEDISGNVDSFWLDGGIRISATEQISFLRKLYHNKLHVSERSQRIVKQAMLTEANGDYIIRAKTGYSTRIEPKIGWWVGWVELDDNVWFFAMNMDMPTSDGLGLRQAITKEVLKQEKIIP
In short: (§2)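 Nitrocefin (100 μM) hydrolysis followed at 490 nm for 1 h in 0.1 M sodium phosphate pH 7.0, 10 mM NaHCO3, 0.005% Triton X-100, with 3-fold inhibitor dilutions from 100 μM to 62.7 pM. Progress curves fitted globally to give kinact/Ki or Ki; percent inhibition from best-fit absorbance fitted with Hill equation.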

[8] = biological target: TEM-1 (Class A beta-lactamase) (Escherichia coli, UniProt P62593); assay: Inhibition of beta-lactamase enzymes (nitrocefin hydrolysis), TEM-1; format: biochemical; conditions: read-out: Class A TEM-1 60 min IC50, nitrocefin 100 μM
TEM-1 (Class A beta-lactamase), sequence (P62593 whole entry, looked up, species assumed): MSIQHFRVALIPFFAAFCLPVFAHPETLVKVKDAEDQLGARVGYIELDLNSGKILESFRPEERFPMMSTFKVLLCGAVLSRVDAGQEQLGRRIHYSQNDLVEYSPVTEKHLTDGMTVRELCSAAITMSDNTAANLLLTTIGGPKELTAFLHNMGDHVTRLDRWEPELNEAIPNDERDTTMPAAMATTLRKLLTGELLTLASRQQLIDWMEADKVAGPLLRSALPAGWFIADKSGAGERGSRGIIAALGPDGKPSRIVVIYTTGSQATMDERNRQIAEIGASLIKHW
In short: as §2

[9] = test system: Klebsiella pneumoniae SHV-18, OXA-2, OKP-6 (ATCC 700603); assay: MIC, CLSI broth microdilution, beta-lactam with or without BLI; format: cell-based; conditions: BLI at fixed 4 μg/ml; K. pneumoniae ATCC 700603
Protocol: (§3) The minimal inhibitory concentration (MIC) values against each organism and drug combination were determined using the Clinical and Laboratory Standards Institute guidelines (CLSI) broth microdilution methodology (CLSI M07-A10). The recommended quality control (QC) bacterial strains E. coli ATCC 25922, E. coli ATCC 35218 and Klebsiella pneumoniae ATCC 700603 were incorporated into each test according to the CLSI guidelines to assure that there was no variation between test dates (CLSI M100-S25). The MICs of these QC strains were within QC range on all test occasions. Drug containing plates were made using the master plate method. A cefpodoxime solution was prepared to 20× concentration and 2-fold serial dilutions were made in cation adjusted Mueller-Hinton Broth. Equal volumes of 20× examplar compounds at a fixed concentration were added to the master plate. 10 uL was stamped into daughter plates using a Tecan EVO robot. Organism suspensions were adjusted to a 0.5 McFarland standard and further diluted to yield a final inoculum between 3×10^5 and 7×10^5 colony-forming units (CFU)/mL. Bacterial inocula were made in sterile, cation adjusted Mueller-Hinton Broth (Beckton Dickinson). An inoculum volume of 1.1× concentration of 90 uL was added to wells (using a Tecan EVO robot). All inoculated microdilution plates were incubated in ambient air at 35° C. for 18-24 hours.
(§4) Following the procedure from Example 103, MICs were determined for several beta-lactams in presence of a fixed concentration (4 μg/mL) of exemplar compounds (Table 3) against 3 Enterobacteriaceae strains.

E. coli WT (ATCC 25922) = assay: as above; format: cell-based; conditions: BLI at fixed 4 μg/ml
Protocol: as §3, §4

[10] = test system: C. freundii AmpC, TEM-1, CMY65; assay: as above; format: cell-based; conditions: BLI at fixed 4 μg/ml
Protocol: as §3, §4

[11] = test system: E. coli ARC2687 (AmpC, CTX-M-14); assay: Mouse neutropenic thigh infection model, oral efficacy of cefpodoxime proxetil with Example 35; format: in vivo
Protocol: The oral in vivo efficacy of Example 35 was evaluated in combination with cefpodoxime proxetil in a mouse neutropenic thigh infection model versus a relevant clinical isolate. […] CD-1 mice (Charles River, Wilmington US) were housed in shoebox type cages with contact bedding and acclimated to the facility for a minimum of 2 days prior to use. The animal room was maintained at 70° F., with 50+/−10% relative humidity and a 12-hour light/dark cycle. The study was conducted using an IACUC-approved protocol in accordance with Title 9 of the Code of Federal Regulations. Animals were rendered neutropenic with two intraperitoneal doses of cyclophosphamide (150 mg/kg—4 days and 100 mg/kg—1 day prior to infection (Gerber et al. (1983) J Infect Dis 147(5); 910-917)). Animals were infected via an intramuscular challenge of ˜1×10^6 CFU administered within 100 μL of 0.9% saline. The inoculum was prepared from a 25 mL overnight culture of E. coli ARC 2687 in tryptic soy broth media. Following an OD600 determination, the inoculum was diluted in 0.9% saline to a concentration of […] prior to inoculation into the left and right thigh. Oral therapy with cefpodoxime proxetil alone and in combination with Example 35 was initiated 2 hours post bacterial challenge. Doses were suspended in 0.5% HPMC/0.1% Tween 80 and administered by oral gavage at a dose volume of 10 mL/kg. A terminal endpoint was obtained at 24 hr to determine bacterial counts in thigh tissue (CFU/gm). Animals were ethically euthanized, thighs were asceptically removed, weighed and homogenized in 1 mL of saline. Bacterial burden enumeration of tissue homogenate was performed by serial dilution on tryptic soy agar plates which were incubated overnight at 37° C. prior to colony (CFU) counting. The lower limit of detection was ˜2.6 log10 CFU/gm of tissue.

[12] = 10 mg/kg, PO, analyte = compound administered (sulfate-derived comparator)
[13] = IV 10 mg/kg, analyte = compound administered

| Compound | AUC [1, 12] | IC50 [7] | AUC [1, 13] | IC50 [8] | MIC of cefixime in presence of BLI [9] | MIC of faropenem in presence of BLI [9] | MIC of tebipenem in presence of BLI [9] | MIC of cefixime in presence of BLI (E. coli WT (ATCC 25922)) | MIC of cefuroxime in presence of BLI (E. coli WT (ATCC 25922)) | MIC of faropenem in presence of BLI (E. coli WT (ATCC 25922)) | MIC of tebipenem in presence of BLI (E. coli WT (ATCC 25922)) | MIC of cefixime in presence of BLI [10] | MIC of cefuroxime in presence of BLI [10] | MIC of faropenem in presence of BLI [10] | MIC of tebipenem in presence of BLI [10] | also measured |
| --- | --- | --- | --- | --- | --- | --- | --- | --- | --- | --- | --- | --- | --- | --- | --- | --- |
| N#CC1CC[C@@H]2CN1C(=O)N2OS(=O)(=O)O (some centres unmarked) [WCK 4234, reference compound] | 0.45 µM·h |  |  |  |  |  |  |  |  |  |  |  |  |  |  |  |
| CC1=C[C@@H]2CN(C(=O)N2O[C@H](F)C(=O)OC(C)C)[C@@H]1C(N)=O [Example 12, propan-2-yl (2R)-{[(2S,5R)-2-carbamoyl-3-methyl-7-oxo-1,6-diazabicyclo[3.2.1]oct-3-en-6-yl]oxy}(fluoro)ethanoate] |  |  |  |  |  |  |  |  |  |  |  |  |  |  |  | Circulating concentrations of the ester in plasma ([1]; rat plasma, LC/MS/MS): Rapid hydrolysis precluded satisfactory analysis of circulating concentrations; half-life at 10 μM [2]: 3.88 h; half-life at 10 μM [3]: 0.267 h; half-life at 10 μM [4]: 0.233 h; half-life at 10 μM [5]: 3.93 h; half-life at 10 μM [6]: 2.2 h |
| CC1=C[C@@H]2CN(C(=O)N2O[C@H](F)C(=O)O)[C@@H]1C(N)=O [Example 4, (2R)-{[(2S,5R)-2-carbamoyl-3-methyl-7-oxo-1,6-diazabicyclo[3.2.1]oct-3-en-6-yl]oxy}(fluoro)ethanoic acid lithium salt] |  | 15 nM | 19.1 µM·h | 1.35 nM | ≤0.06 µg/mL | 1 µg/mL | ≤0.06 µg/mL | ≤0.06 µg/mL | 0.02 µg/mL | ≤0.06 µg/mL | ≤0.06 µg/mL | ≤0.06 µg/mL | 0.02 µg/mL | ≤0.06 µg/mL | ≤0.06 µg/mL |  |
| O=C(NC1CCNCC1)[C@@H]1CC[C@@H]2CN1C(=O)N2OS(=O)(=O)O [Relebactam, reference compound] | 0.29 µM·h |  |  |  |  |  |  |  |  |  |  |  |  |  |  |  |
| CC1=C[C@@H]2CN(C(=O)N2O[C@@H](F)C(=O)O)[C@@H]1C(N)=O [Example 3, (2S)-{[(2S,5R)-2-carbamoyl-3-methyl-7-oxo-1,6-diazabicyclo[3.2.1]oct-3-en-6-yl]oxy}(fluoro)ethanoic acid lithium salt] |  | 15 nM | 34.9 µM·h | 19 nM | 0.5 µg/mL | 2 µg/mL | 0.125 µg/mL | 0.125 µg/mL | 0.02 µg/mL | 0.25 µg/mL | ≤0.06 µg/mL | 1 µg/mL | 1 µg/mL | 0.25 µg/mL | ≤0.06 µg/mL |  |
| CC1=C[C@@H]2CN(C(=O)N2OS(=O)(=O)O)[C@@H]1C(N)=O [ETX2514, reference compound] | 0.44 µM·h |  |  |  |  |  |  |  |  |  |  |  |  |  |  |  |
| CC1=C[C@@H](C(N)=O)N2C[C@@H]1N(O[C@@H](F)C(=O)O)C2=O [Example 34, (2S)-2-(((2S,5R)-2-carbamoyl-4-methyl-7-oxo-1,6-diazabicyclo[3.2.1]oct-3-en-6-yl)oxy)-2-fluoroacetic acid lithium salt] |  | 19 nM | 16.1 µM·h | 26 nM | ≤0.06 µg/mL | 0.5 µg/mL | ≤0.06 µg/mL | ≤0.06 µg/mL | <0.03125 µg/mL | ≤0.06 µg/mL | ≤0.06 µg/mL | ≤0.06 µg/mL | <0.03125 µg/mL | ≤0.06 µg/mL | ≤0.06 µg/mL | MIC of cefuroxime in presence of BLI [9]: 1 µg/mL |
| COCC1=C(C(=O)OC(C)OC(=O)OC(C)C)N2C(=O)[C@@H](NC(=O)/C(=N\OC)c3csc(N)n3)[C@H]2SC1 (some centres unmarked) [Cefpodoxime proxetil, cefpodoxime proxetil, reference compound] |  |  |  |  |  |  |  |  |  |  |  |  |  |  |  | log10CFU/gm thigh ([11]; cefpodoxime proxetil alone 50 mg/kg PO/q6h, mouse neutropenic thigh, E. coli ARC2687): 10.24 log10CFU/gm thigh; CFU Change from 26 hr ([11]; cefpodoxime proxetil alone 50 mg/kg PO/q6h, relative to 26 hr growth control): −0.62 log10 CFU/gm; CFU Change from 2 hr ([11]; cefpodoxime proxetil alone 50 mg/kg PO/q6h, relative to initiation of therapy): +3.97 log10 CFU/gm; growth of bacterial burden in thighs after 24 hours of therapy ([11]; cefpodoxime proxetil alone at 50 mg/kg q6h, oral, neutropenic CD-1 mice): greater than 3 log10 CFU/gm |

From patent US10800778B2 (Entasis Therapeutics Limited, priority 2016, dated 2020)
